From PubChem BioAssay (NCI)
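Results reflect a 48-hour exposure of cells in 96-well plates to compound at five concentrations. GI50 = concentration required for 50% inhibition of growth. TGI: concentration producing complete growth inhibition.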

Experiments:
Assay in all cases: growth of human tumour cells (NCI), 48 h
BT-549 breast = test system: BT-549 breast
K-562 leukemia = test system: K-562 leukemia
LOX IMVI melanoma = test system: LOX IMVI melanoma
MALME-3M melanoma = test system: MALME-3M melanoma
MDA-MB-231 breast = test system: MDA-MB-231 breast
MOLT-4 leukemia = test system: MOLT-4 leukemia
NCI-H460 lung = test system: NCI-H460 lung
OVCAR-5 ovarian = test system: OVCAR-5 ovarian
SN12C renal = test system: SN12C renal
TK-10 renal = test system: TK-10 renal

| Structure (SMILES) | GI50 (BT-549 breast) | TGI (BT-549 breast) | GI50 (K-562 leukemia) | TGI (K-562 leukemia) | GI50 (LOX IMVI melanoma) | TGI (LOX IMVI melanoma) | GI50 (MALME-3M melanoma) | TGI (MALME-3M melanoma) | GI50 (MDA-MB-231 breast) | TGI (MDA-MB-231 breast) | GI50 (MOLT-4 leukemia) | TGI (MOLT-4 leukemia) | GI50 (NCI-H460 lung) | TGI (NCI-H460 lung) | GI50 (OVCAR-5 ovarian) | TGI (OVCAR-5 ovarian) | GI50 (SN12C renal) | TGI (SN12C renal) | TGI (TK-10 renal) | GI50 (TK-10 renal) |
| --- | --- | --- | --- | --- | --- | --- | --- | --- | --- | --- | --- | --- | --- | --- | --- | --- | --- | --- | --- | --- |
| COc1cccc2c1C(=N)c1c(O)c3c(c(O)c1C2=O)C[C@@](O)(C(C)=O)C[C@@H]3O[C@H]1C[C@H](N)[C@H](O)[C@H](C)O1 | 0.813 µM | 4.58 µM | 0.322 µM | 10.9 µM | 0.178 µM | 1.49 µM | 0.391 µM | 3.24 µM | 1.26 µM | 7.74 µM | 0.0428 µM | 2.89 µM | 0.0472 µM | 0.833 µM | 0.512 µM | 5.68 µM | 0.224 µM | 1.21 µM | 3.19 µM |  |
| Cc1nnc(-c2ccc(C)c(-c3ccc(C(=O)Nc4cccc(C#N)c4)cc3)c2)o1 | > 25 µM | > 25 µM | > 25 µM | > 25 µM | > 25 µM | > 25 µM | > 25 µM | > 25 µM | > 25 µM | > 25 µM | > 25 µM | > 25 µM | > 25 µM | > 25 µM | > 25 µM | > 25 µM | > 25 µM | > 25 µM | > 25 µM | > 25 µM |
| Cn1c(Cl)c(/C=C2/C(=O)Nc3ccccc32)c2ccccc21 | 0.243 µM | 3.87 µM | 0.0601 µM | > 100 µM | 1.16 µM | 18.9 µM | 0.179 µM | 15.3 µM | 0.588 µM | 12.7 µM | 0.139 µM |  | 0.727 µM | > 32.2 µM | 3.85 µM | 27.8 µM | 1.87 µM | 23.7 µM | 20.4 µM | 1.5 µM |
| COc1cc(C2c3cc4c(cc3OC(C)(N3CCCC3)C2C)OCO4)cc(OC)c1OC (stereo not drawn) |  | 12.2 µM |  | 0.908 µM |  | > 31.4 µM |  | > 55.2 µM |  | 2.42 µM |  | 10.6 µM |  | 19.2 µM |  | > 20.5 µM |  | 30.8 µM | > 67.1 µM |  |
| CC/C=C\C[C@H]1CC=C2C(=O)C=C[C@@H]2CC=CCCCC(=O)O[C@@H](CCCCC)CC=C2C(=O)C=C[C@@H]2CC=CCCCC(=O)O[C@@H](CCCCC)CC=C2C(=O)C=C[C@@H]2CC=CCCCC(=O)O[C@@H](CCCCC)CC=C2C(=O)C=C[C@@H]2CC=CCCCC(=O)O1 | 1.78 µM | 5.21 µM | 2.5 µM | > 7.9 µM | 1.22 µM | 2.47 µM | 2.77 µM | > 7.9 µM | 1.91 µM | 4.99 µM | 2.39 µM | > 7.9 µM | 2.45 µM | > 7.9 µM | 4.02 µM | > 7.9 µM | 1.99 µM | 6.86 µM | > 7.9 µM | 3 µM |
| CCN1C(=O)/C(=C/c2c(Cl)[nH]c3cc(C)c(OC)cc23)c2ccccc21 | 0.5 µM | 6.31 µM | 3.03 µM | > 100 µM | 9.72 µM | > 100 µM | 14.9 µM | 70.6 µM | 2.43 µM | 54.1 µM | 4.36 µM | 35.2 µM | 3.31 µM | 70.2 µM | 16.5 µM | 85.3 µM | 5.51 µM | 83.1 µM | 75.6 µM | 16.5 µM |
| CN(c1ccc(NC(=O)Nc2c(Cl)cccc2Cl)cc1)c1ccnc(Nc2cccc(CS(C)(=O)=O)c2)n1 | 3.3 µM | 8.15 µM | 1.54 µM | > 25 µM | 2.37 µM | > 14.7 µM | 1.53 µM | > 14.4 µM | 4.49 µM | 16.9 µM | > 25 µM | > 25 µM | 0.505 µM | 11.6 µM | 6.2 µM | > 19.5 µM | 3.37 µM | 10.6 µM | 9.02 µM | 3.98 µM |
| CCN1C(=O)c2ccc3c4c(ccc(c24)C1=O)C(=O)N(CCCNCc1ccccc1OC)C3=O | 1.48 µM | 2.94 µM | 0.936 µM | 4.27 µM | 0.314 µM | 1.31 µM | 0.186 µM | 0.391 µM | 0.791 µM | 9.31 µM | 0.891 µM | 4.37 µM | 0.437 µM | 2.09 µM | 1.35 µM | 3.74 µM | 0.327 µM | 1.32 µM | 7.6 µM | 2.52 µM |
